From patent US20060171911A1, “Diiodomethyl-p-tolylsulfone as a particulate dispersion in a liquid solvent in combination with an anti-dandruff active” (priority 2005, published 2006)

Legend:
fungal [1] = test: Anti-fungal activity, dispersed particle form vs. dissolved in an effective solvent
[2] = cited from earlier work
fungal [3] = details: cited from earlier work

Cc1ccc(S(=O)(=O)C(I)I)cc1 [diiodomethyl-p-tolylsulfone, Benzene, 1-[(diiodomethyl)sulfonyl]-4-methyl-(9CI)]
activity retained in dispersed particle form vs. dissolved in an effective solvent (fungal [1]): about 100%
water solubility [2]: less than 5 ppm
pH range over which effective (fungal [3]): 2-11 pH
